The IC50 is the midpoint of a concentration-inhibition curve.

Drawing on BindingDB's records for patent US20240018122 (Chiesi Farmaceutici, 2024), this text covers IC50 for seven compounds.

Molecules are shown by their SMILES. Bounds are passed on as bounds.

This assay concerns the target T1, TGF-beta receptor type-1 (Homo sapiens, UniProt P36897).
T1 sequence (P36897 whole entry): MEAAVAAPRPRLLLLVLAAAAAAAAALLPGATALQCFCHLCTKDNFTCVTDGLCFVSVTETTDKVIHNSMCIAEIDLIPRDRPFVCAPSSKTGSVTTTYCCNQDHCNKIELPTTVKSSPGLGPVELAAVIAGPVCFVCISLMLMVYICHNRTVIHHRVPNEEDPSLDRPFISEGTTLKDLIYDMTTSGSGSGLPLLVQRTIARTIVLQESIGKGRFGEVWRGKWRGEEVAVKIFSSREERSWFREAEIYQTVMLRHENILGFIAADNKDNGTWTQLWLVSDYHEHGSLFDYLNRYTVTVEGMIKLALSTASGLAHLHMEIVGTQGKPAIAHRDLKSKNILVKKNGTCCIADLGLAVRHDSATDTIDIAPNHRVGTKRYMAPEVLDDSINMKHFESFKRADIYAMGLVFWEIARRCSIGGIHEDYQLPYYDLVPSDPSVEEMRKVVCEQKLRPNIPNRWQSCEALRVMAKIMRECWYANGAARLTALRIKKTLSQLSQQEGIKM
The experiment in a line: In vitro Assay. On the procedure:
The enzymatic activity of compounds of the present invention was monitored measuring the formation of ADP using the ADP-GLO Kinases assay. Following the incubation of the purified enzyme, a substrate and ATP, the produced ADP was converted into ATP, which in turn was converted into light by Ultra-Glo Luciferase. The luminescent signal positively correlated with ADP amount and kinase activity.
Compound `Cc1nnc(-c2cc(Cl)ccc2F)cc1Nc1ccnc(NC(=O)NCC2CCN(C)CC2)c1` [US20240018122, Example 142] came in with an IC50 below 1 nM.

On to `Cc1nnc(-c2cc(Cl)ccc2F)cc1Nc1ccnc(NC(=O)CCN2CCNC(C(=O)O)C2)c1` (configuration not stated) [US20240018122, Example 92], for which the IC50 was below 1 nM.

`OCCC(CCO)N1CCN(CCOc2ccc3c(Nc4cnnc(-c5cc(Cl)ccc5F)c4)ccnc3c2)CC1` [US20240018122, Example 86] gave an IC50 below 1 nM.

`CN1CCN(CCN(C)C(=O)c2cc3c(Nc4cnnc(-c5cc(Cl)ccc5F)c4)ccnc3[nH]2)CC1` [US20240018122, Example 40] showed an IC50 below 1 nM.

As to `Cc1nnc(-c2cc(Cl)ccc2F)cc1Nc1ccnc(NC(=O)CCN2CCN(CCS(C)(=O)=O)CC2)c1` [US20240018122, Example 83], the IC50 is below 1 nM.

In turn, `Cc1nnc(-c2cc(Cl)ccc2F)cc1Nc1ccnc(NC(=O)C2CC2)c1` [US20240018122, Example 15] returned an IC50 below 1 nM.

Turning to `Cc1nnc(-c2cc(Cl)ccc2F)cc1Nc1ccnc(NC(=O)CCN2CC[N+](C)(C)CC2)c1` [US20240018122, Example 110], the IC50 was below 1 nM.
